According to patent US20250099488A1, “ANTI-PARASITE COMPOUNDS” (AUSTRALIAN NATIONAL UNIVERSITY, priority 2022, published 2025):
pIC50: −log10 of the molar value. Where two headings read alike, the source gives them in different places.

Key:
[1] = test system: P. falciparum infected red blood cells (iRBC) vs uninfected red blood cells (uRBC); assay: Uptake of fluorescent cholesterol analogues into infected vs uninfected RBCs (flow cytometry, microscopy); assay type: cell-based, Plasmodium falciparum; conditions: 24 hrs incubation, ring-stage culture, cholesterol-depleted media
Experimental: (§1) For quantification, events were measured on a LSR II or LSRFortessa Flow Cytometer. NBD/BODIPY fluorescence was detected at 488 nm ex/530 nm em. Hoechst 33342 (Thermo Fisher) fluorescence was detected at 410 nm ex/450 nm em. Resorufin fluorescence was detected at 561 nm ex/610 nm em. Mitotracker Deep Red was detected at 633 nm ex/670 nm em. Dehydroergosterol was detected at 355 nm ex/450 nm em.
(§2) Data were initially processed using FlowJo. RBCs were gated on FSC and SCC. iRBCs (positive) and uRBCs (negative) were differentiated by Hoechst or Mitotracker fluorescence. The geometric mean of fluorescence intensity (mean fluorescence intensity, MFI) and/or the percentage of each population (e.g. Hoechst positive) was calculated with FlowJo. Background fluorescence was subtracted based on unstained controls (buffer or solvent only). Except where otherwise specified, MFI data was normalised between experiments by setting the fluorescence of untreated uRBCs to 1.
Ring-stage parasites at 4% parasitaemia and 2% haematocrit were incubated with 2.02 uM cholesterol analogues or solvent controls in cholesterol-depleted media for 24 hours at 37° C. under microaerophilic conditions. […] Samples were read on a flow cytometer or imaged with fluorescence microscopy as described above. […]

[2] = test system: P. falciparum gametocytes (stage III-IV); assay: Gametocyte viability assay (MitoTracker, flow cytometry); assay type: cell-based, Plasmodium falciparum
Text: Gametocyte assays begun eight days post-invasion (Stage III-IV).
(§3) Growth inhibition data were normalised by subtracting background fluorescence, luminescence, absorbance, or percentage of cells from a no-growth or no-viability control (high drug concentration, no-parasite control, or time=0 measurement as specified), and expressed as a percentage of the growth or cell percentage in the negative control (culture media alone or solvent control) at the indicated timepoint (or to the highest measurement reached during the assay for FIG. 15B).

[3] = test system: human foreskin fibroblasts (HFF); assay: HFF growth inhibition assay (SYBR Safe); assay type: cell-based
Experimental: Cells were incubated with a serial dilution of each compound, or media/DMSO alone. The protein synthesis inhibitor cycloheximide (10 μg/mL) was used as a positive control to determine background fluorescence. Approximately 5000 cells were seeded in each well. […] Plates were transferred to a −18° C. freezer. […] Fluorescence was read at 490 nm excitation/520 nm emission on a FLUOstar Optima fluorescence plate reader.
HFF cell growth inhibition assays began with 5000 cells per well. 10 μg/mL cycloheximide was used as a no-growth control.

Leishmania tarentolae = Leishmania tarentolae growth inhibition; assay type: cell-based; conditions: 72 hours, FIG. 22
[4] = test system: human hepatoma cells (Huh7); assay: Huh7 hepatoma viability assay (CellTiter-Blue); assay type: cell-based; conditions: 48 hours; effect on cellular integrity / modest cytotoxicity
Experimental: Huh7 hepatoma viability assays were conducted in the same manner as the P. berghei assays, with metabolic capacity (indicating viability) measured by incubation with CellTiter-Blue® (Promega) for 3 hours.

[5] = HEK293 cell viability assay (MTT); assay type: cell-based, human; conditions: human; 96 hours, FIG. 16H / FIG. 18C; read-out: IC50, HEK293 cytotoxicity
Experimental: HEK293 cell viability assays began with 5000 cells per well. 10 μg/mL cycloheximide was used as a no-growth control. Metabolic capacity (indicating viability) was measured by incubation with 0.45 mg/mL methylthiazolyldiphenyl-tetrazolium bromide (MTT; Sigma M2128) for two hours followed by crystal solubilisation in SDS.

[6] = test system: P. falciparum CAM3.II (mutated Kelch-13, resistant); assay: Ring stage survival assay, resistant strain; assay type: cell-based, Plasmodium falciparum; conditions: 700 nM for six hours, then 66 hours without drug, FIG. 17B
Text: (§4) The inventors tested these compounds in a ring stage survival assay, which allows the detection of resistant parasites against this […] drug and is the standard method for investigating resistance to artemisinin and its derivatives (Witkowski B, Menard D, Amaratunga C. Fairhurst R. Ring-stage Survival Assays (RSA) to evaluate the in-vitro and ex-vivo susceptibility of Plasmodium falciparum to artemisinins Procedure. Inst Pasteur du Cambodge—Natl Institutes Heal [Internet]. 2013 Sep. 11 [cited 2022 Jun. 19]; Procedure; available from: https://www.wwarn.org/sites/default/files/INV10-Standard-Operating-Procedure-Ring-Stage-Survival-Assays.pdf). This assay involves a short treatment window against newly-invaded ring stage parasites, followed by removal of drug pressure to mimic the clearance of the drug from plasma. We utilised two parasite strains: an isolate from Cambodia (CAM3.II) with a mutated Kelch-13 conferring resistance, and a genetically modified revertant of this strain (CAM3.IIREV) conferring drug susceptibility (Straimer J, Gnädig N F, Witkowski B, Amaratunga C, Duru V, Ramadani A P, et al. K13-propeller mutations confer artemisinin resistance in Plasmodium falciparum clinical isolates. Science (80-) [Internet]. 2015 Jan. 23 [cited 2022 Jun. 19]; 347(6220):428-31; available from: https://www.science.org/doi/10.1126/science.1260867).
(§5) Following tight synchronisation, CAM3.II and CAM3.IIREV ring stage parasites (0-3 hours post invasion) at 1% parasitaemia and 2% haematocrit were incubated with 700 nM of compounds or solvent-only controls for exactly six hours, before removing the drug, thoroughly washing in RPMI, and returning to culture conditions for a further 66 hours. Some cells were treated with 700 nM artesunate for 72 hours as a no-growth control. DNA replication (indicating growth) was measured at the specified time using SYBR Safe DNA Gel Stain. Microscope slide smears of each condition were stained with 10% v/v Giemsa and examined under a light microscope (1 000× magnification); with ‘viable’ (morphologically normal) and ‘non-viable’ (morphologically aberrant; vacuolated or pyknotic) parasites distinguished according to standard protocol (Witkowski B, Menard D, Amaratunga C, Fairhurst R. Ring-stage Survival Assays (RSA) to evaluate the in-vitro and ex-vivo susceptibility of Plasmodium falciparum to artemisinins Procedure. Inst Pasteur du Cambodge—Natl Institutes Heal [Internet]. 2013 Sep. 11 [cited 2022 Jun. 19]; Procedure. Available from: https://www.wwam.org/sites/default/files/INV10-Standard-Operating-Procedure-Ring-Stage-Survival-Assays.pdf). Images were captured using a Leica ICC50 camera, with a resolution of 76 nm per pixel.

[7] = test system: P. falciparum CAM3.IIREV (susceptible); assay: Ring stage survival assay, susceptible revertant strain; assay type: cell-based, Plasmodium falciparum; conditions: 700 nM for six hours, then 66 hours without drug, FIG. 17B
Text: as §4, §5

[8] = test system: P. falciparum infected red blood cells (iRBC) vs uninfected red blood cells (uRBC); assay: Uptake and cleavage of steroid-resorufin conjugate in iRBCs vs uRBCs; assay type: cell-based, Plasmodium falciparum; conditions: steroid-resorufin conjugate (PAYb193), FIG. 10A
Experimental: Images were collected and deconvoluted on a Deltavision Deconvolution microscope at 1000× magnification, with a resolution of 0.067 μm per pixel. NBD and BODIPY fluorescence were detected at 475/28 nm excitation and 525/48 nm emission. Hoechst fluorescence (nucleic acid) was detected at 390/18 nm and ex/435/48 nm em. Resorufin fluorescence was detected at 575/25 nm ex and 626/45 nm em.
as §1, §2

asexual P. falciparum = assay: Plasmodium growth inhibition assay (SYBR Safe), asexual stages; assay type: cell-based, Plasmodium falciparum; conditions: 72 hrs, FIG. 10B
Experimental: Compounds or solvent controls (DMSO, ethanol, or ethyl acetate) were serially diluted 2-fold across flat-bottom 96-well plates. Complete culture media without compound was used as a negative control. Chloroquine (100-200 nM) {Sigma C6628} was used as a positive control to determine background fluorescence. The parasitaemia of a culture containing predominantly ring stage parasites was counted by Giemsa smear. The parasitaemia was adjusted to 1% by addition of fresh uRBCs, and added to the plate at a final haematocrit of 1%, with 200 μL per well. The plates were incubated at 37° C. under humid microaerophilic conditions. […] Fluorescence was read at 490 nm excitation/520 nm emission on a FLUOstar Optima fluorescence plate reader {BMG Labtech}.
Growth inhibition data were normalised by subtracting background fluorescence from a no-growth control (high drug concentration or time=0 measurement as specified), and expressed as a percentage of the growth in the negative control (media alone or solvent control) either at the indicated timepoint, or to the highest measurement reached during the assay.
P. falciparum asexual parasite assays begun with ring-stage parasites at 1% parasitaemia and 1% haematocrit. 200 nM chloroquine (Sigma C6628) was used as a no-growth control. […] 17]; 8 (2):e54974).
as §3

CC(C)CCC[C@@H](C)[C@H]1CC[C@H]2[C@@H]3CC=C4C[C@@H](OC(=O)CCCCCNc5ccc([N+](=O)[O-])c6nonc56)CC[C@]4(C)[C@H]3CC[C@]12C [3-hexanoyl-NBD-cholesterol]
Uptake in iRBC compared to uRBC (fold change of fluorescence) [1]: not significantly different

CC1=CC(C)=[N+]2C1=C(CC[C@@H](C)[C@H]1CC[C@H]3[C@@H]4CC=C5C[C@@H](O)CC[C@]5(C)[C@H]4CC[C@]13C)c1c(C)cc(C)n1[B-]2(F)F [24-BODIPY-cholesterol]
Uptake in iRBC compared to uRBC (fold change of fluorescence) [1]: seems to get stuck at the RBC membrane

COc1cc(NC(C)CCCNC(=O)CCC(=O)O[C@H]2CC[C@H]3[C@@H]4CC=C5C[C@@H](O)CC[C@]5(C)[C@H]4CC[C@]23C)c2ncccc2c1 (stereo partly drawn) [BC5B]
Susceptibility of early (I-III) and late stage (III-IV) gametocytes ([2]; FIG. 9C): both early (A) and late-stage (B) gametocytes are equally susceptible | Maximal inhibition of HFF growth at the range of concentrations tested ([3]; 72 hrs): ≤ 50% | IC50 (Leishmania tarentolae): higher efficacy than primaquine

CC(C)(C)OOCCO[C@H]1CC[C@H]2[C@@H]3CC=C4C[C@@H](O)CC[C@]4(C)[C@H]3CC[C@]12C [BC86D]
pIC50 (Leishmania tarentolae; Leishmania tarentolae, read-out: IC50): > 6.00

CC(C)OC(=O)CCC(=O)O[C@H]1CC[C@H]2[C@@H]3CC=C4C[C@@H](O)CC[C@]4(C)[C@H]3CC[C@]12C [C-17-link, 3β-Hydroxyandrost-5-en-17β-yl succinate-propan-2-yl diester]
pIC50 ([2]; Plasmodium falciparum, 48 h, read-out: IC50, gametocyte viability): < 4.00 | Concentration at which cytotoxic effect was detected [4]: > 30 µM | IC50, fibroblast growth ([3]; 72 hours, FIG. 16G): no notable inhibition was observed | IC50 at 96 h [5]: 43.6 µM | Parasite survival (DNA replication) [6]: did not significantly impact on the growth of either strain | Parasite survival / growth inhibition (DNA replication) [7]: did not significantly impact on the growth of either strain

CC12CCC(O)CC1=CCC1C2CCC2(C)C(OC(=O)CCC(=O)OCOc3ccc4nc5ccc(=O)cc-5oc4c3)CCC12 (stereo not drawn) [Payb193, 3β-hydroxyandrost-5-en-17β-yl succinate-(hydroxymethoxy)-resorufin ester]
Uptake of the probe, iRBCs vs uRBCs [8]: approximately 2 fold | Killing of the parasite compared with uncoupled resorufin (dose-response curve) (asexual P. falciparum): can kill the parasite at lower concentrations than the uncoupled resorufin base molecule

C[C@]12CC[C@H]3[C@@H](CC=C4C[C@@H](O)CC[C@@]43C)[C@@H]1CC[C@@H]2OC(=O)CCC(=O)OCOc1ccc2nc3ccc(=O)cc-3oc2c1 [steroid-resorufin conjugate, 3β-Hydroxyandrost-5-en-17β-yl succinate-(hydroxymethoxy)-resorufin ester]
Uptake of the probe, iRBCs vs uRBCs [8]: approximately 2 fold
